{"source": "patent US8945921B2", "about": "“Modulating the production of neurons and/or oligodendrocytes from white matter progenitor cells” (Cornell Research Foundation, Inc., priority 2003, dated 2015)", "tested_on": "adult human white matter progenitor cells (WMPCs)", "test": "Tyrosine phosphatase inhibition: oligodendrocyte differentiation of cultured WMPCs (A2B5/O4/BrdU immunocytochemistry)", "type": "cell-based", "method": "WMPCs were distributed onto 12-well plates coated with poly-L-ornithine and fibronectin at 5×10^4 cells/ml in DMEM/F12/N1 supplemented with 10 ng/ml bFGF (Sigma), 10 ng/ml PDGF-AA (Sigma), and 2 ng/ml NT3 (R&D Systems). Stock solutions of 1 μM bpV(phen) (potassium bisperoxo (1,10-phenanthroline) oxovanadate (V); Calbiochem) were prepared before each use. Cells were exposed to concentrations of 0, 1, 5, 10, and 25 ng/ml of bV(phen) immediately upon plating, and every 2 days thereafter for 7 day in vitro.\nCultures were exposed continuously to 10 μg/ml BrdU beginning 24 hours before fixation. After 7 days in vitro, A2B5 and O4 were immunolabeled as previously described (Roy et al., “Identification, Isolation, and Promoter-defined Separation of Mitotic Oligodendrocyte Progenitor Cells from the Adult Human Subcortical White Matter,” J. Neurosci 19:9986-95 (1999), which is hereby incorporated by reference in its entirety). For multiple antigen labeling, O4 and A2B5 were localized on live cells that were then fixed with 4% paraformaldehyde and immunostained for BrdU. O4 supernatant was used at a dilution of 1:100 and monoclonal antibody A2B5 supernatant (clone 105, American Type Culture Collection) was used in a 1:1 ratio with DMEM/F12/N, both for 40 minutes at 4° C. Rat anti-BrdU antibody (Harlan) was used at a dilution of 1:200. Fixed cultures were counterstained with DAPI (10 ng ml; Molecular Probes). The number of A2B5 and O4 stained and unstained cells were counted in 10 randomly chosen fields at each dosage level, from individual replicate samples (n=4). Statistical significance was assessed by one-way repeated measures analysis of variance (ANOVA), followed by Tukey's multiple comparisons test (GraphPad Prism 3.0, p<0.05).\nDue to the high expression of the tyrosine phosphatase receptor RTPβ/ζ in WMPCs, the effect of tyrosine phosphatase inhibition on the differentiation of WMPCs was assessed. bpV(phen), a known potent inhibitor of tyrosine phosphatase activity, was used to induce inhibition (Posner et al., “Peroxovanadium Compounds. A New Class of Potent Phosphotyrosine Phosphatase Inhibitors Which Are Insulin Mimetics,” J Biol Chem 269: 4596-4604 (1994); Bevan et al., “Selective Activation of the Rat Hepatic Endosomal Insulin Receptor Kinase. Role for the Endosome in Insulin Signaling,” J Biol Chem 270: 10784-10791 (1995); Faure et al., “Arrest at The G2/M Transition of the Cell Cycle by Protein-Tyrosine Phosphatase Inhibition Studies on a Neuronal and a Glial Cell Line,” J Cell Biochem 59: 389-401 (1995), which are hereby incorporated by reference in their entirety). […] Statistical significance was first detected at 1 ng/ml bpV(phen) in the A2B5 positive population and 10 ng ml bpV(phen) in the O4 positive population. The O4/A2B5 ratio rose drastically from under 10 percent to 70 percent in response to 25 ng/ml treatment with bpV(phen) (FIG. 1E).", "key": {"[1]": {"conditions": "7 days in vitro, doses 0, 1, 5, 10, 25 ng/ml"}, "[2]": {"conditions": "between dosage levels 0-25 ng/ml, 7 days in vitro"}}}
{"smiles": "O.O.O.OO.OO.[K+].[OH-].[V].c1cnc2c(c1)ccc1cccnc12", "note": "[bpV(phen), potassium bisperoxo (1,10-phenanthroline) oxovanadate (V)]", "values": [{"measurement": "percentage of O4+ cells", "setting": "25 ng ml, 7 days in vitro, n=4 patients, untreated 20±8.4%", "result": "54±17.6", "unit": "%"}, {"measurement": "percentage of progenitor A2B5+ cells", "setting": "25 ng/ml, 7 days in vitro, n=4 patients, untreated 15±2.2%", "result": "4±0.5", "unit": "%"}, {"measurement": "O4/A2B5 ratio", "setting": "25 ng/ml, 7 days in vitro, untreated under 10 percent", "result": 70, "unit": "%"}, {"measurement": "concentration at which statistical significance was first detected, A2B5 positive population", "setting": "[1]", "result": 1, "unit": "ng/mL"}, {"measurement": "concentration at which statistical significance was first detected, O4 positive population", "setting": "[1]", "result": 10, "unit": "ng·mL"}, {"measurement": "effect on WMPC expansion and differentiation", "setting": "WMPCs exposed to the RTP inhibitor", "result": "ceased expansion and differentiated as oligodendrocytes"}, {"measurement": "number of A2B5+ BrdU+ cells", "setting": "[2]", "result": "unchanged"}, {"measurement": "total cell number", "setting": "[2]", "result": "unchanged"}]}
